Converted amounts (≈) assume the structure as drawn. Where two headings read alike, the source gives them in different places.
Tests used:
[1] = tested on: tdTomato-expressing Mtb CDC1551 strain; assay: microbe, parasite or virus in culture; assay type: cell-based, Mycobacterium tuberculosis; conditions: aurones at 100 μM, 3 days co-incubation, tdTomato fluorescence intensity; for inhibition at 100 µM: Mycobacterium tuberculosis, 72 h, read-out: Inhibitory rate
Mtb CDC1551 = assay: Resazurin microtiter assay (REMA) for MICs; assay type: cell-based; conditions: Mycobacterium tuberculosis, CDC1551, 168 h
HepG2 cells = assay: MTT cell viability cytotoxicity assay, HepG2; assay type: cell-based, human; conditions: for IC50: Homo sapiens, HepG2, 48 h, read-out: IC50 HepG2; for SI (IC50/MIC) HepG2: IC50 HepG2 / MIC Mtb, 2880 min; for selectivity index: on all three cell lines (HepG2, Vero, THP-1)
Description: Cytotoxicities of the aurones were evaluated in Vero cells (ATCC), HepG2 (ATCC), and THP-1 cells (ATCC) using the standard microculture tetrazolium (MTT) cell viability assay. Media used for the Vero cells was DMEM supplemented with 10% calf serum; for HepG2 cells the media used was DMEM supplemented with 20% calf serum; and for THP-1 cells the media used was RPMI-1640 supplemented with 10% calf serum (HyClone Cosmic Calf, GE Lifesciences). Cells were seeded into a 96-well plate. For THP-1 cells, phorbol-12-myristate-13-acetate (PMA) was used to induce the monocytes to develop into macrophages for 3 days before the cytotoxicity assay. A series of two-fold dilutions of aurones or RIF were added into the cell culture media in microplates to determine the concentration that eliminated 50% of eukaryotic cell growth in a 2-days incubation. Cells without drug treatment were incubated with the vehicle buffer and served as negative controls (100% viable). Cells treated with digitonin (100 μg/mL) served as the positive controls. After a 2-days incubation, 10 μL of MTT reagent was loaded into each well, and incubated for 3 h at 37°C. Hundred microliter of detergent solution was then added into each well and the 96-well plates were incubated for 2 h. Absorbance of each sample in the 96-well plates was measured at […]. Viability of each drug-treated sample was calculated as the absorbance of the sample divided by the absorbance of the untreated sample multiplied by 100.
We determined MICs of the top six aurone leads (AA2A, AA8, 9501, 9504, 9505, and 9510) using the standard resazurin microtiter assay (REMA) ([Palomino et al., 2002]). The MIC was defined as the lowest drug concentration that prevented the color change of resazurin from blue to pink. The MICs for 9504, 9505, 9501, 9510, AA2A, and AA8 were 6.25, 12.5, 25, 25, 25, and 50 μM, respectively (Table 2). We evaluated the cytotoxic effects of aurones to human liver cells HepG2, primate kidney Vero cells and human monocyte THP-1 cells after a 2-days incubation using the microculture tetrazolium (MTT) cell viability assay. Concentration gradients of the selected aurones or RIF (as a control) were incubated with the three cell lines. We calculated half maximal inhibitory concentration (IC50) of aurones on these three cell lines. By comparing MICs with IC50, we calculated the selectivity index (SI) for each aurone lead as […].

[2] = MTT cell viability cytotoxicity assay, Vero; assay type: cell-based, primate; conditions: monkey, vero cells; MTT, 2-days incubation; read-out: IC50 Vero
Vero cells = assay: MTT cell viability cytotoxicity assay, Vero; assay type: cell-based, primate; conditions: for SI (IC50/MIC) Vero: IC50 Vero / MIC Mtb, 2880 min; for IC50: Primates, Vero, 48 h, read-out: IC50 Vero
THP-1 cells = assay: MTT cell viability cytotoxicity assay, THP-1 derived macrophages; assay type: cell-based, human; conditions: for IC50: Homo sapiens, THP-1, 48 h, read-out: IC50 THP-1; for SI (IC50/MIC) THP-1: IC50 THP-1 / MIC Mtb, 2880 min
[3] = tested on: intracellular Mtb in THP-1 cell derived macrophages; assay: Efficacy against intracellular Mtb in THP-1 derived macrophages; assay type: cell-based, Mycobacterium tuberculosis; conditions: for Mtb CFU compared to the initial intracellular Mtb load (0 h) / CFUs of intracellular Mtb at 48 h compared to before treatment (0 h): 48 h; for CFUs of intracellular Mtb at 48 h compared to before treatment (0 h): 25 and 50 μM
Description: Human monocyte THP-1 cells were seeded at 5 × 10^4 cells / well in 96-well tissue culture black plates with clear bottoms. PMA was used to induce the monocytes to develop into macrophages for 3 days before infection. The tdTomato-expressing Mtb strain was employed for cell infection at an MOI = 20. After a 3 h incubation of the Mtb strain with THP-1 cells, extracellular bacteria were removed by washing twice with the cell culture medium. 200 μL of cell culture medium containing either 25 or 50 μM aurones or 1X MICs of amikacin (AMI, 1 μg/mL), ethambutol (ETH, 0.5 μg/mL), RIF (0.4 μg/mL) and isoniazid (INH) (0.5 μg/mL) was added to each well in triplicate and incubated for 48 h. Infected cells treated with the vehicle buffer served as negative controls. Cells were then lysed and plated for CFU counting.
FIGURE 2 Aurones inhibit intracellular Mtb. (A) Growth ratios of samples treated with the aurone leads or control drugs compared to the growth ratio of untreated control. Growth ratio of each sample = FI of each sample at 48 h / FI of the same sample at 0 h. (B) CFUs of samples treated with the aurone leads or control drugs compared to the CFU of untreated control at 0 and 48 h. 25 and 50 μM of the aurone leads were incubated with the infected cells (MOI = 20) after removing extracellular bacteria. Positive controls: AMI (1 μg/mL), ETH (0.5 μg/mL), INH (0.5 μg/mL), and RIF (0.4 μg/mL). Data are means of three independent experiments ± S.D. *P < 0.05, **P < 0.01, ****P < 0.0001.

[4] = tested on: tdTomato-expressing Mtb in the lungs of BALB/c mice; assay type: in vivo, Mycobacterium tuberculosis; conditions: after a 12-days treatment
[5] = molecular target: Mtb chorismate synthase (Mtb-Cs, Rv2540c) (Mycobacterium tuberculosis, UniProt P9WPY1); assay: Mtb chorismate synthase activity assay (coupled, Pi production with MESG/PNP); assay type: biochemical; conditions: Pi production at A360, EPSP, FMN 0.04 mM, NADH 0.3 mM
Mtb chorismate synthase (Mtb-Cs, Rv2540c), sequence (P9WPY1 whole entry): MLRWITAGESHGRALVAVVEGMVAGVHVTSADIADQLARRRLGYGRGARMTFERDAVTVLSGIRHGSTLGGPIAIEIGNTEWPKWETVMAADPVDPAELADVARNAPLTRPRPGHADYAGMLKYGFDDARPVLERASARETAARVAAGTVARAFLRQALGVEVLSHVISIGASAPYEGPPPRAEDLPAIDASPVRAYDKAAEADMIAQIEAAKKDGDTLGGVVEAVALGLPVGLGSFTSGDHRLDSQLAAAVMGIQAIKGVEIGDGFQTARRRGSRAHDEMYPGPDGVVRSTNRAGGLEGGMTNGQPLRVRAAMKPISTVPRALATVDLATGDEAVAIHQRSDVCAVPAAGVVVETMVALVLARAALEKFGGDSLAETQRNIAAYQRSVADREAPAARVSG

[6] = tested on: purine nucleoside phosphorylase (PNP); assay: Purine nucleoside phosphorylase counter-assay; assay type: biochemical; conditions: PNP 0.2 U, MESG 50 μM, potassium phosphate 10 mM
Description: FIGURE 4 AA2A and 9504 inhibit Mtb-Cs activity. (A) Assay to measure the ability of aurones to inhibit Cs of Mtb. (B) SDS-PAGE analysis of extracted rRv3227 (left) and rRv2540c (right). Lane 1: marker (PageRuler^M Unstained); 2: crude protein extracts; 3–5: samples eluted from Ni-column by 125, 250, and 500 mM imidazole, respectively; 6: the concentrated proteins eluted by 500 mM imidazole. (C) Evaluation of 9501, 9504, 9505, and 9510 inhibitory effects on Mtb-Cs activity. (D) Evaluation of AA2A and AA8 inhibitory effects on Mtb-Cs activity. Data are means of three independent experiments ± S.D. The reaction mixture comprised Mtb-Cs, various concentrations of aurone leads, EPSP ([…]), FMN (0.04 mM) and NADH (0.3 mM). The production of chorismate from the enzymatic reaction was determined by measuring Pi production using MESG (0.2 mM) and PNP (1 U). […] The reaction mixture comprised PNP (0.2 U), MESG (50 μM), potassium phosphate (10 mM), and aurones (50 μM for 9501, 9504, 9505, and 9510; 200 μM for AA2A and AA8). No significant differences (P > 0.05) were identified between each of the aurone-treated group and the positive control group. Data are means of three independent experiments ± S.D.

Mtb = tested on: Mtb; parameters: method as in Jayaram et al., 2003; conditions: 10 mg/kg, 12 daily oral doses; ref Jayaram et al., 2003; cited from earlier work
[7] = REMA, 7 days incubation, lowest concentration preventing resazurin colour change, read-out: MIC
[8] = MTT, 2-days incubation, PMA-induced macrophages

SMILES | inhibition at 100 µM [1] [%] | SI (IC50/MIC) HepG2 (HepG2 cells) | selectivity index (HepG2 cells) | SI (IC50/MIC) Vero (Vero cells) | SI (IC50/MIC) THP-1 (THP-1 cells) | Mtb CFU compared to the initial intracellular Mtb load (0 h) ([3]; 50 μM) | CFUs of intracellular Mtb at 48 h compared to before treatment (0 h) [3] | Mtb load in the lungs of infected mice [4] | IC50 [5] [µM] | inhibition of PNP ([6]; aurone 50 μM) | Inhibitory rate [1] [%] | MIC (Mtb CDC1551; [7]) [µM] | IC50 (HepG2 cells; MTT, 2-days incubation) [µM] | IC50 (Vero cells; MTT, 2-days incubation) [µM] | IC50 (THP-1 cells; [8]) [µM] | other results
CN(C)c1ccc(C=C2Oc3cc(Cl)ccc3C2=O)cc1 [Aurone 9501] | 85 ± 2.24 | 15.85 | > 10 | 44.50 | 12.98 | reduced Mtb CFU significantly | did not increase | significantly reduced | 5.36 ± 1.65 | do not inhibit |  |  |  |  |  | MIC (Mtb CDC1551): 25 µM (≈ 7.49 µg/mL); IC50 (HepG2 cells): 396 µM; CC50 at 48 h [2]: 1110 µM; IC50 (THP-1 cells): 325 µM
CN(C)c1ccc(C=C2Oc3cc(Br)ccc3C2=O)cc1 [Aurone 9504] | 88.29 ± 0.16 | 126.40 | > 10 | 87.98 | 100.50 | reduced Mtb CFU significantly | did not increase | significantly reduced | 17.1 ± 1.07 | do not inhibit |  |  |  |  |  | MIC (Mtb CDC1551): 6.25 µM (≈ 2.15 µg/mL); IC50 (HepG2 cells): 790 µM; IC50 (Vero cells): 550 µM; IC50 (THP-1 cells): 628 µM
CC(=O)N1/C(=C\c2ccc[nH]2)C(=O)c2ccccc21 [AA5A] |  |  |  |  |  |  |  |  |  |  | 69.93 ± 10.09 |  |  |  |  | 
CN(C)c1ccc(C=C2Oc3c(Br)cccc3C2=O)cc1 [Aurone 9505] | 84.4 ± 2.99 | 2.34 |  | 38.34 | 17.56 | reduced Mtb CFU significantly | did not increase |  | 24.5 ± 9.44 | do not inhibit |  | 12.5 (≈ 4.3 µg/mL) | 29.3 | 479 | 219 | Mtb CFU compared to the initial intracellular Mtb load (0 h) ([3]; 25 μM): reduced Mtb CFU significantly
CC(=O)N1/C(=C\c2ccccc2O)C(=O)c2ccccc21 [AA3A] |  |  |  |  |  |  |  |  |  |  | 41.32 ± 9.99 |  |  |  |  | 
CC(=O)N1/C(=C\c2ccc(CO)o2)C(=O)c2ccccc21 [AA4A] |  |  |  |  |  |  |  |  |  |  | 66.18 ± 0.98 |  |  |  |  | 
CC(=O)N1C(=Cc2ccccc2Br)C(=O)c2ccccc21 [AA2A] | 85.95 ± 0.38 | 4.71 |  | 5.13 | 4.39 | reduced Mtb CFU significantly | did not increase | significantly reduced | 24.1 ± 0.55 |  |  | 25 (≈ 8.55 µg/mL) | 118 | 128 | 110 | inhibition of PNP ([6]; aurone 200 μM): do not inhibit
O=C1C(=Cc2ccccc2)Nc2ccccc21 [AA8] | 71.9 ± 2 | 7.99 |  | 5.58 | 10.08 |  | did not increase | significantly reduced | 50.3 ± 8.61 |  |  | 50 (≈ 11.1 µg/mL) | 399 | 279 | 504 | inhibition of PNP ([6]; aurone 200 μM): do not inhibit
CO[C@H]1/C=C/O[C@@]2(C)Oc3c(C)c(O)c4c(O)c(c(/C=N/N5CCN(C)CC5)c(O)c4c3C2=O)NC(=O)/C(C)=C\C=C\[C@H](C)[C@H](O)[C@@H](C)[C@@H](O)[C@@H](C)[C@H](OC(C)=O)[C@@H]1C [RIF, rifampicin, reference compound] |  |  |  |  |  |  |  |  |  |  |  | 0.5 (≈ 0.411 µg/mL) | 4.56 | 22.8 | 15 | CFU reduction in bacterial burden in the lungs (Mtb): ~1 log10 CFU
Cc1cc2c(cc1C)C(=O)C(=Cc1ccc(N(C)C)cc1)O2 [Aurone 9510] | 83.1 ± 1.62 | 18.06 | > 10 | 35.69 | 27.71 |  |  |  | 15.1 ± 1.68 | do not inhibit |  | 25 (≈ 7.33 µg/mL) | 451 | 892 | 693 | intracellular Mtb replication ([3]; 25 μM, at 48 h): did not fully inhibit
